Patent US20220235325A1, “STIMULATION OF DENDRITIC CELL ACTIVITY BY HOMOTAURINE AND ANALOGUES THEREOF” (Therapeutic Solutions International, Inc., priority 2021, published 2022)

Assays:
NK target cell line = assay: Natural killer cell activity of PBMC plated with StemVacs dendritic cells (flow cytometry Promega cytotoxicity assay); format: cell-based; conditions: 10 micrograms/ml; PBMC plus StemVacs umbilical cord derived dendritic cells; 12, 24, 36 hrs (FIG. 1)
Description: (§1) Peripheral blood mononuclear cells where obtained by ficoll centrifugation and plated with StemVacs umbilical cord derived dendritic cells. StemVacs was generated by culture of umbilical blood adherent cells with interleukin 4 and GM-CSF for 7 days with maturation step induced by 24 hour culture TLR agonist. Assessment of natural killer cell activity was performed subsequent to culture of cells with taurine (10 micrograms/ml) or homotaurine (10 micrograms/ml) for the indicated timepoints. Cytotoxicity against NK target cell line was performed using the flow cytometry Promega assay.

[1] = system: interferon gamma production; assay: T cell activity of PBMC plated with StemVacs dendritic cells (ELISA of interferon gamma after phytohemagglutinin); format: cell-based; conditions: 10 micrograms/ml; PBMC plus StemVacs; 5 micrograms per ml phytohemagglutinin; 12, 24, 36 hrs (FIG. 2)
Description: as §1, with “StemVacs” left out, “T” for “natural killer”, “T” for “Cytotoxicity against NK target”, “activity” for “line”, “assessed by ELISA quantification of interferon gamma production after stimulation with 5 micrograms per ml of phytohemagglutinin.” for “performed using the flow cytometry Promega assay.”

monocytes = conditions: cited from earlier work
[2] = monocytes from human peripheral blood

| Structure (SMILES) | Ability of StemVacs to stimulate NK activity (cytotoxicity against NK target cell line) (NK target cell line) | Ability of StemVacs to stimulate T cell activity (interferon gamma production) [1] | FcgammaR-mediated cytokine production and antibody-dependent cellular cytotoxicity by monocytes (monocytes; 12 hour exposure) | Expression of ADCC associated receptors FcgammaRI, FcgammaRIIa and common gamma-subunit (monocytes; [2]) | Expression of the inhibitory FcgammaRIth molecule (monocytes; [2]) |
| --- | --- | --- | --- | --- | --- |
| NCCCS(=O)(=O)O [Homotaurine, homotaurine] | Increases Ability of StemVacs to Stimulate NK Activity | Increases Ability of StemVacs to Stimulate T Cell Activity | – | – | – |
| CCOCc1nc2c(N)nc3ccccc3c2n1CC(C)(C)O [R-848] | – | – | increased | upregulation | profound downregulation |
